Experimental data published in patent US7737250B2, “Peptides for treating axonal damage, inhibition of neurotransmitter release and pain transmission, and blocking calcium influx in neurons” (Mount Sinai School of Medicine of New York University, priority 2003, dated 2010).

Key:
[1] = test system: cell-surface myc-L1-CAM on ND-7 cells; test: L1-CAM diffusion behavior assay: movement of 9E10-coated beads bound to myc-L1-CAM (video microscopy, laser tweezers); type: cell-based, rat
Source text: Video microscopy, laser tweezers, and data analysis: The 9E10-coated latex beads were then placed and held with an optical gradient laser trap on the surface of transfected cells at a distance of between 0.5 and 1 μm from the leading edge for 2 seconds. The laser trap consisted of a Titanium Sapphire (Coherent; model 890) solid state laser pumped by a 5 W frequency-doubled Neodymnium Vanadate laser (Verdi; Coherent) and tuned to 800 nm. This wavelength was previously determined to generate the fewest heating artifacts in live cells (Svoboda and Block. Biomol Struct 1994;23:-247-285 and Choquet et al. Cell 1997;88:39-48). Laser power at the output of the Titanium Sapphire laser was 40 mW, and prepared beads were placed and held on the cell surface for less than 3 sec to further reduce the possibility of heating artifacts. Laser light was introduced through the television port of the Axiovert microscope.
Video images of bead movement were collected using a newvicon camera (Dage MTI; VE-1000N) and background subtraction and contrast enhancement were carried using a Hamamatsu Argus 20 image processor. Raw data were recorded to sVHS video tape for subsequent analysis. Video recordings were subsequently digitized onto an Intel processor-based computer running the Isee imaging software (Isee Imaging) running under Red Hat Linux 7.1. Quantification of bead movement was carried out in Isee. Diffusional analysis was carried out using a custom spreadsheet in Excel (Microsoft). This spreadsheet carries out 4 operations: first, it scales the data from pixel measurements to nm using the appropriate scale factor (determined by the magnification used to observe bead movement); second, it subtracts the first point from all of the data, to set the origin at 0,0 (x,y coordinates); third, it rotates (in two dimensional space) the data around the origin so that the orientation of the cell is the same from trial to trial (here, the data was set so that the cells all face to the left); and fourth, the spreadsheet calculates the mean square displacement (MSD) data which are used to calculate diffusion coefficients and bead velocity. Individual traces were scored blind for classes of behavior. Statistical analysis of percentages of trials was carried out using chi-squared analysis or a Fisher's exact probability test.
MSD values were calculated as previously described (see Qian et al, 1991; Biophysical Journal 60 p910). For these calculations, the squared displacement (a^2+b^2; where a=xn+t−xn, b=a=yn+t−yn for any two points separated by time t) of the bead was calculated between two points in the data set. The mean of the squared displacements was calculated for each time interval t=1 to m, where m is the time interval that equals 10% of the length of the data set. The mean displacement was plotted with respect to time giving a curve with a linear or quadratic shape, depending on the behavior of the bead. Diffusion rates and velocity were calculated by fitting the curve with the equation MSD=4Dt+v^2t^2, where D is the diffusion coefficient, v is the velocity and t is time. D and v were calculated for each bead independently and presented as averages or as individual values, as described in each case.
Cell culture and transfection: ND-7 cells (rat neuroblastoma/DRG hybrid cells) were plated and transfected with pMyc-L1-CAM, pMyc-L1-CAM-YF, pMyc-L1-CAM-YH, or pMyc-L1-CAM-STOP expression constructs as described in Example 3, supra.
In some instances, ND-7 cells transfected with pMyc-L1-CAM were treated with the cytoskeletal inhibitor cytochalasin D (2 μM; Sigma) or nocadazole (1 μM; Sigma). For these experiments treatment with DMSO (0.01%) vehicle alone served as the negative control.
In some instances, ND-7 cells transfected with pMyc-L1-CAM were treated with neural growth factor (NGF) to stimulate phosphorylation of tyrosine 1229 (Y1229) of the L1-CAM cytoplasmic domain, and thereby inhibit ankyrin binding. […]

[2] = test system: complex containing L1-CAM, ankyrin B and Cav2.2; test: Co-precipitation of L1-CAM and ankyrin B with Cav2.2 channel protein from DRG neurons; type: cell-based; conditions: chick DRG neurons treated with saline; peptide pretreatment
Description: Co-precipitation: 1×10^6 DRG cells were used for each condition. DRG neurons were exposed to control solution containing 100 μM bicuculline or 100 μM GABA in the presence of 100 μM bicuculline. After agonist treatment, DRG neurons were lysed with ice-cold buffer (phosphate buffered saline, pH 7.4, containing 250 μM sodium pervanadate, 1% (v/v) NP-40, 1 mM Pefabloc, 1 mM EDTA, 1 mM EGTA, 10 μg/ml pepstatin, 10 μg/ml leupeptin, and 100 μg/ml soybean trypsin inhibitor, 100 μg/ml calpain I and 100 μg/ml calpain II inhibitors. The α1subunit of the Cav2.2 channel was immunoprecipitated as previously described (Schiff, M. L et al., (2000). Nature 408:723-726.).
Cell culture, transmitter application: Cell culture and transmitter application, were performed as described in Example 10, supra. For experiments determining the effect of activation of GABAB receptors upon L1-CAM-ankyrin-calcium channel interaction in DRG neurons, calcium channels were precipitated from DRG neurons treated with saline or baclofen for 20 seconds using anti-pan alpha 1 antibody and then immunoblotted for ankyrin (anti-ankyrin B antibody) or L1-CAM (8D9 anti-NgCAM).

[3] = ND-7 cells expressing myc-L1-CAM, 1.4 μg/ml peptide for 30 minutes

RQIKIWFQNRRMKWKKQFNEDGSFIGQF [AP-YF]
percentage of beads showing stationary behavior [1, 3]: reduced
percentage of trials undergoing retrograde movement [1, 3]: increase
co-precipitation of L1-CAM and ankyrin B with Cav2.2 channel protein [2]: abolished the interaction

RQIKIWFQNRRMKWKKFQGIFSGDENFQ [AP-Scramble]
bead velocity compared to untreated controls ([1]; 1.4 μg/ml peptide): no significant effect
co-precipitation of L1-CAM and ankyrin B with Cav2.2 channel protein [2]: not
